Reference: the supplement of paper PMC10307832

What was measured:
Experiment in all cases: relative viability (nuclei count vs DMSO), 5 days (fraction); higher = more cells survive
Crenolanib + AZD7762 = compound: CC1(COc2ccc3c(c2)ncn3-c2ccc3cccc(N4CCC(N)CC4)c3n2)COC1 [Crenolanib] + NC(=O)Nc1cc(-c2cccc(F)c2)sc1C(=O)N[C@H]1CCCNC1 [AZD7762] (partner 0.2 µM)
Method in brief: (§1)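 Each reported value is a median over duplicate plates. It expresses relative viability: treated-well nuclei count divided by vehicle-well nuclei count. Lung cancer cell lines in 1536-well plates were dosed by pin tool a day after seeding, alone with one drug or with a fixed anchor-drug dose plus five library-drug doses (not always all listed) in √10 steps, and nuclei were counted after 5 days.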

Tivantinib + Foretinib = compound: O=C1NC(=O)[C@@H](c2cn3c4c(cccc24)CCC3)[C@@H]1c1c[nH]c2ccccc12 [Tivantinib] + COc1cc2c(Oc3ccc(NC(=O)C4(C(=O)Nc5ccc(F)cc5)CC4)cc3F)ccnc2cc1OCCCN1CCOCC1 [Foretinib] (partner 0.25 µM)
Method in brief: as §1

Tivantinib + Crizotinib = compound: O=C1NC(=O)[C@@H](c2cn3c4c(cccc24)CCC3)[C@@H]1c1c[nH]c2ccccc12 [Tivantinib] + C[C@@H](Oc1cc(-c2cnn(C3CCNCC3)c2)cnc1N)c1c(Cl)ccc(F)c1Cl [Crizotinib] (partner 1 µM)
Method in brief: as §1

Crenolanib + Olaparib = compound: CC1(COc2ccc3c(c2)ncn3-c2ccc3cccc(N4CCC(N)CC4)c3n2)COC1 [Crenolanib] + O=C(c1cc(Cc2n[nH]c(=O)c3ccccc23)ccc1F)N1CCN(C(=O)C2CC2)CC1 [Olaparib] (partner 8 µM)
Method in brief: as §1

| Cell Line | relative viability (Crenolanib + AZD7762; first compound 0.01 µM) | relative viability (Crenolanib + AZD7762; first compound 0.03162 µM) | relative viability (Crenolanib + AZD7762; first compound 0.1 µM) | relative viability (Crenolanib + AZD7762; first compound 0.3162 µM) | relative viability (Crenolanib + AZD7762; first compound 1 µM) | relative viability (Tivantinib + Foretinib; first compound 0.01 µM) | relative viability (Tivantinib + Foretinib; first compound 0.03162 µM) | relative viability (Tivantinib + Foretinib; first compound 0.1 µM) | relative viability (Tivantinib + Foretinib; first compound 0.3162 µM) | relative viability (Tivantinib + Crizotinib; first compound 0.01 µM) | relative viability (Tivantinib + Crizotinib; first compound 0.03162 µM) | relative viability (Tivantinib + Crizotinib; first compound 0.1 µM) | relative viability (Tivantinib + Crizotinib; first compound 0.3162 µM) | relative viability (Crenolanib + Olaparib; first compound 0.01 µM) | relative viability (Crenolanib + Olaparib; first compound 0.03162 µM) | relative viability (Crenolanib + Olaparib; first compound 0.1 µM) | relative viability (Crenolanib + Olaparib; first compound 0.3162 µM) | relative viability (Crenolanib + Olaparib; first compound 1 µM) |
| --- | --- | --- | --- | --- | --- | --- | --- | --- | --- | --- | --- | --- | --- | --- | --- | --- | --- | --- |
| 201T | 0.686 | 0.633 | 0.605 | 0.739 | 0.694 | 1.16 | 1.01 | 1.02 | 0.921 | 1.01 | 1.01 | 1.04 | 1.02 | 0.83 | 0.852 | 0.786 | 0.867 | 0.86 |
| A-427 | 0.778 | – | 0.726 | 0.802 | 0.853 | 1.06 | 1.24 | 0.97 | 0.848 | 0.893 | 1.02 | 0.821 | 0.859 | 0.79 | – | 0.759 | 0.847 | 0.629 |
| ABC-1 | – | 0.776 | 0.961 | 1.01 | 0.902 | 0.936 | 0.995 | 1.09 | 1.15 | 1.39 | 1.14 | 0.91 | 1.5 | 1.01 | 0.78 | 0.614 | 0.668 | 0.625 |
| BEN | 0.684 | 0.612 | 0.704 | 0.735 | 0.71 | 0.602 | 0.535 | 0.616 | 0.559 | 0.897 | 0.72 | 0.672 | 0.681 | 1.15 | 0.96 | 0.966 | 1.01 | 1.05 |
| CAL-12T | 0.778 | 0.553 | 0.641 | 0.634 | 0.799 | 1.17 | 0.953 | 1.1 | 0.782 | 0.711 | 0.774 | 0.714 | 0.36 | 0.746 | 0.694 | 0.721 | 0.771 | 0.725 |
| ChaGo-K-1 | 0.876 | 0.863 | 0.866 | 0.933 | 0.891 | 0.846 | 0.904 | 0.838 | 0.559 | 1.1 | 1.2 | 1.11 | 0.939 | 0.398 | 0.406 | 0.426 | 0.422 | 0.45 |
| EKVX | 0.733 | 0.779 | 0.731 | 0.841 | 0.761 | 0.714 | 0.841 | 0.761 | – | 0.944 | 0.965 | 0.712 | 0.242 | 0.93 | 0.849 | 0.841 | 0.965 | 0.809 |
| EMC-BAC-2 | 1.1 | – | 1.1 | 1.25 | 1.07 | 1 | 0.962 | 0.487 | 0.72 | 0.833 | 0.728 | 0.751 | 0.657 | 0.559 | – | 0.466 | 0.532 | 0.462 |
| EPLC-272H | 0.207 | 0.238 | 0.376 | 0.289 | 0.251 | 0.776 | 0.593 | 0.787 | 0.0941 | 1.04 | 0.963 | 0.785 | 0.82 | 0.854 | 0.868 | 0.605 | 1.11 | 0.989 |
